Among the data in US7812183B2, “Benzopyran derivatives as potassium channel openers” (Janssen Pharmaceutica NV, priority 2005, dated 2010) are EC50 values, retold here.

The target of the assay is T1, KATP channels (Homo sapiens, UniProt O60706+Q14654).
T1 construct: TE671 human medulloblastoma cells were obtained from ATCC; host or cells: TE671 human medulloblastoma cells
T1 sequence (O60706 1-1549 isoform O60706-2): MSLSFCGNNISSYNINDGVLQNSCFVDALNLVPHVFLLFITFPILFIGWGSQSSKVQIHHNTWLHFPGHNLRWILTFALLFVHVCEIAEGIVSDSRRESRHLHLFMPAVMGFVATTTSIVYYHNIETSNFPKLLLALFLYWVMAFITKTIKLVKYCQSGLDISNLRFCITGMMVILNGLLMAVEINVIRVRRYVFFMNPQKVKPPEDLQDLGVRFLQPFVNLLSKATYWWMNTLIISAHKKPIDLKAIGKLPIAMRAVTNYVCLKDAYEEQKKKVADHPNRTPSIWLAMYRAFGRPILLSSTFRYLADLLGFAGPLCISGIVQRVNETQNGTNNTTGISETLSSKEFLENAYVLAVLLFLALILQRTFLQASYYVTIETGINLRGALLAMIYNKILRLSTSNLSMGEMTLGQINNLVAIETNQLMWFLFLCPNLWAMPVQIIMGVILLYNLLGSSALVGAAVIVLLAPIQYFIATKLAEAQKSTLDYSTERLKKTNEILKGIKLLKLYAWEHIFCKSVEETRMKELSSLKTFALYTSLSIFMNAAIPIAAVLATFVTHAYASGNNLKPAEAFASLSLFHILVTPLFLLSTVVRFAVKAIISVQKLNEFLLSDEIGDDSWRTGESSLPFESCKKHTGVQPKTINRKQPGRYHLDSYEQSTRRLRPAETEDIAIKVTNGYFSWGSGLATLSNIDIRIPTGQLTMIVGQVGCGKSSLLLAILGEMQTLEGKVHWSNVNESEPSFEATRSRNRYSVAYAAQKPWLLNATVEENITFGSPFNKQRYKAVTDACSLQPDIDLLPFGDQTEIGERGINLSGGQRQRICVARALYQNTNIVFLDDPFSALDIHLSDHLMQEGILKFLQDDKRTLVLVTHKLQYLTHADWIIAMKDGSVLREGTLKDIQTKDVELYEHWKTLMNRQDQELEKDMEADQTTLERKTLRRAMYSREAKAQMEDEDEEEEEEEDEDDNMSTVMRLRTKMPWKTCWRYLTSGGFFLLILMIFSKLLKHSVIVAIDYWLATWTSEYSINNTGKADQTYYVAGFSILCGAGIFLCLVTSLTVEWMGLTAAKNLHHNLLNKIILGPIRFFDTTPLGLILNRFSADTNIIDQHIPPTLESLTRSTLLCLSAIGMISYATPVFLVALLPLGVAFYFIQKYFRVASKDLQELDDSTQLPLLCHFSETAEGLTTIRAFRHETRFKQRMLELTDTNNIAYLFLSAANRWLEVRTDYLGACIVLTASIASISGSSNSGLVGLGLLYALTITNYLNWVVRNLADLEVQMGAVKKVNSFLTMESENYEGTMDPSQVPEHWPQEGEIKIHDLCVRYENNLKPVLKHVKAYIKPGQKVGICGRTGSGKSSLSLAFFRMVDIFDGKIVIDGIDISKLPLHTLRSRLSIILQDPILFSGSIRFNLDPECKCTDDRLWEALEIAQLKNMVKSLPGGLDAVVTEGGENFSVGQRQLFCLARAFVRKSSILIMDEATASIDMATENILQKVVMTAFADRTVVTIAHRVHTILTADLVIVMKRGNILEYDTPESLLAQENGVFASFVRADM
T1 sequence (Q14654 whole entry): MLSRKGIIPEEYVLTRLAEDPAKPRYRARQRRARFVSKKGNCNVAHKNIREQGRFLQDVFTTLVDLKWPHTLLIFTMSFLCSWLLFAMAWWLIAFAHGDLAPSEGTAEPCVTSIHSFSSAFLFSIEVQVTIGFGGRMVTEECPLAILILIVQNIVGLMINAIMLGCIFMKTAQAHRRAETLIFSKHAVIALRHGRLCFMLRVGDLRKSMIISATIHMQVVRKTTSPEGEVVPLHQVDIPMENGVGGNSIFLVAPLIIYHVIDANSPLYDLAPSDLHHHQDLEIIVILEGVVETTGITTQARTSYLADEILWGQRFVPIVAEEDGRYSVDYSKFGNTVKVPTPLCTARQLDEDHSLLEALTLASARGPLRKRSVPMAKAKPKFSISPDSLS
The experiment in a line: Potassium Channel Assay (FLIPR membrane potential, TE671 cells). As to conditions: TE671 human medulloblastoma cells, Membrane Potential Assay Dye, room temperature, hyperpolarization from KATP channel opening. It is filed as cell-based. As to the method: TE671 human medulloblastoma cells were obtained from ATCC and grown in Dulbecco's modified Eagle's medium (DMEM) supplemented with 10% fetal bovine serum, 100 U/ml penicillin and 100 U/ml streptomycine.
The day before testing, the cells were plated in black 96-well plates at 50K/well. On the day of testing, the growth media was removed, then 100 μl of FLIPR buffer (20 mM HEPES, 120 mM NaCl, 2 mM KCl, 2 mM CaCl2, 1 mM MgCl2, 5 mM Glucose) and 100 μl of Membrane Potential Assay Dye (Molecular Devices) dissolved in FLIPR buffer were added to each well. The cells were incubated at room temperature for 15 to 30 min.
The effect of test compounds on KATP channels were evaluated on a fluorometric imaging plate reader (FLIPR, Molecular Devices) at room temperature. After a baseline period, 50 μl of 5× stock solution of test compound prepared in FLIPR buffer was added and fluorescent change was monitored for 3 minutes. After this reading, glyburide, a KATP channel blocker, was added to a final concentration of 5 μM to check the specificity of the test compound as a KATP channel openers. Hyperpolarization resulting from KATP channel opening was observed as a decrease in fluorescent intensity.
Representative compounds of the present invention were tested according to the procedure described above, with results as listed in Table 7, below.
For the molecule `CC1(C)Oc2ccc(C#N)cc2[C@@H](Oc2ccn(-c3ccccc3)n2)[C@@H]1O` (racemic) [Compound 58, 3-Hydroxy-2,2-dimethyl-4-(1-phenyl-1H-pyrazol-3-yloxy)-chroman-6-carbonitrile], the midpoint of the response, the EC50, lay at 2.62 µM.
Turning to `CC1(C)Oc2ccc(Cl)cc2[C@@H](OC2=NN(c3ccccc3)CC2)[C@@H]1O` (racemic) [Compound 59, 6-Chloro-2,2-dimethyl-4-(1-phenyl-4,5-dihydro-1H-pyrazol-3-yloxy)-chroman-3-ol], the EC50 (in general, the concentration giving half of the maximal effect) came to 16.6 µM.
Turning to `CC1(C)Oc2ccc(Cl)cc2[C@@H](Oc2ccn(-c3ccccc3)n2)[C@@H]1O` (racemic) [Compound 60, 6-Chloro-2,2-dimethyl-4-(1-phenyl-1H-pyrazol-3-yloxy)-chroman-3-ol], the EC50 is greater than 30 µM.
Next, `CC1(C)Oc2ccc(C#N)cc2[C@@H](n2c(=O)ccn2-c2ccccc2)[C@@H]1O` (racemic) [Compound 62, 3-Hydroxy-2,2-dimethyl-4-(5-oxo-2-phenyl-2,5-dihydro-pyrazol-1-yl)-chroman-6-carbonitrile]: 13.5 µM; `CCN(CC)S(=O)(=O)c1ccc2c(c1)[C@@H](Nc1noc3ccc(Cl)cc13)[C@H](O)C(C)(C)O2` (racemic) [Compound 80, 4R-(5-Chloro-benzo[d]isoxazol-3-ylamino)-3S-hydroxy-2,2-dimethyl-chroman-6-sulfonic acid diethylamide]: greater than 30 µM; `CC1(C)Oc2ccncc2[C@@H](n2ccnc2-c2ccccc2)[C@@H]1O` (racemic) [Compound 105, 2,2-Dimethyl-4-(2-phenyl-imidazol-1-yl)-3,4-dihydro-2H-pyrano[3,2-c]pyridin-3-ol]: greater than 30 µM.
In turn, `CC1(C)Oc2ccncc2[C@@H](Nc2nc3cc(Cl)ccc3s2)[C@@H]1O` (racemic) [Compound 106, 4-(5-Chloro-benzothiazol-2-ylamino)-2,2-dimethyl-3,4-dihydro-2H-pyrano[3,2-c]pyridin-3-ol] registered an EC50 of 19.5 µM.
Next, `CC1(C)Oc2ccncc2[C@@H](Nc2nc3cc(Cl)ccc3o2)[C@@H]1O` (racemic) [Compound 107, 4-(5-Chloro-benzoxazol-2-ylamino)-2,2-dimethyl-3,4-dihydro-2H-pyrano[3,2-c]pyridin-3-ol]: greater than 30 µM; `CC1(C)Oc2ccncc2[C@@H](n2nccc2-c2ccc(Cl)cc2)[C@@H]1O` (racemic) [Compound 108, 4-[5-(4-Chloro-phenyl)-pyrazol-1-yl]-2,2-dimethyl-3,4-dihydro-2H-pyrano[3,2-c]pyridin-3-ol]: 4.33 µM; `CC1(C)Oc2ccncc2[C@@H](Oc2ccn(-c3ccc(Cl)cc3)n2)[C@@H]1O` (racemic) [Compound 109, 4-[1-(4-Chloro-phenyl)-1H-pyrazol-3-yloxy]-2,2-dimethyl-3,4-dihydro-2H-pyrano[3,2-c]pyridin-3-ol]: 26.4 µM.
Consider `CC1(C)Oc2ccncc2[C@@H](n2ccnc2-c2ccc(Cl)cc2)[C@@H]1O` (racemic) [Compound 111, 4-[2-(4-Chloro-phenyl)-imidazol-1-yl]-2,2-dimethyl-3,4-dihydro-2H-pyrano[3,2-c]pyridin-3-ol], for which the EC50 was greater than 30 µM.
To `CC1(C)Oc2ccncc2[C@@H](n2nc(-c3ccc(Cl)cc3)ccc2=O)[C@@H]1O` (racemic) [Compound 112, 6-(4-Chloro-phenyl)-2-(3-hydroxy-2,2-dimethyl-3,4-dihydro-2H-pyrano[3,2-c]pyridin-4-yl)-2H-pyridazin-3-one] belongs 29.8 µM.
For `CC1(C)Oc2ccncc2[C@@H](n2cncc2-c2ccc(Cl)cc2)[C@@H]1O` (racemic) [Compound 113, 4-[5-(4-Chloro-phenyl)-imidazol-1-yl]-2,2-dimethyl-3,4-dihydro-2H-pyrano[3,2-c]pyridin-3-ol], the EC50 is 13.8 µM.
In turn, `CC1(C)Oc2ccc(C#N)cc2[C@@H](Nc2nc(=O)c3ccccc3[nH]2)[C@@H]1O` (racemic) [Compound 118, 3-Hydroxy-2,2-dimethyl-4-(4-oxo-1,4-dihydro-quinazolin-2-ylamino)-chroman-6-carbonitrile] returned an EC50 of 7.8 µM.
To `CC1(C)Oc2ccc(C#N)cc2[C@@H](Sc2nc3cc(Cl)ccc3[nH]2)C1O` (stereo in doubt) [Compound 29, (3S,4R)-4-(5-Chloro-1H-benzoimidazol-2-ylsulfanyl)-3-hydroxy-2,2-dimethyl-chroman-6-carbonitrile] belongs 6.18 µM.
In turn, `CC1(C)Oc2ccc(C#N)cc2[C@@H](SC2=NCCO2)[C@@H]1O` (stereo in doubt) [Compound 68, 4-(4,5-Dihydro-oxazol-2-ylsulfanyl)-3-hydroxy-2,2-dimethyl-chroman-6-carbonitrile] came in with a concentration giving a half-maximal response (EC50) of 3.45 µM.
As for `CC1(C)Oc2ccc(C#N)cc2[C@@H](S(=O)(=O)c2ncc[nH]2)C1O` (stereo in doubt) [Compound 71, (3S,4R)-3-Hydroxy-4-(1H-imidazole-2-sulfonyl)-2,2-dimethyl-chroman-6-carbonitrile], the concentration giving a half-maximal response (EC50) is greater than 30 µM.
Next, `CC1(C)Oc2ccc(C#N)cc2[C@@H](n2nccc2-c2ccc(Cl)cc2)[C@@H]1O` [Compound 10, 4R-[5-(4-Chloro-phenyl)-pyrazol-1-yl]-3S-hydroxy-2,2-dimethyl-chroman-6-carbonitrile]: 1.5 µM.
Molecule `CC1(C)Oc2ccc(C#N)cc2[C@@H](Oc2noc3cc(Cl)ccc23)[C@@H]1O` [Compound 22, 4R-(6-Chloro-benzo[d]isoxazol-3-yloxy)-3S-hydroxy-2,2-dimethyl-chroman-6-carbonitrile] registered an EC50 of 0.26 µM.
Regarding `CC1(C)Oc2ccc(C#N)cc2[C@@H](Oc2noc3ccccc23)[C@@H]1O` [Compound 23, (3S,4R)-4-(Benzo[d]isoxazol-3-yloxy)-3-hydroxy-2,2-dimethyl-chroman-6-carbonitrile], a half-maximal response (EC50) required 6.94 µM.
Next, `CC1(C)Oc2ccc(C#N)cc2[C@@H](N2C(=O)C(=O)c3cc(Cl)ccc32)[C@@H]1O` [Compound 24, (3S,4R)-4-(5-Chloro-2,3-dioxo-2,3-dihydro-indol-1-yl)-3-hydroxy-2,2-dimethyl-chroman-6-carbonitrile]: 3.64 µM; `CC1(C)Oc2ccc(C#N)cc2[C@@H](N2C(=O)c3ccncc3C2=O)[C@@H]1O` [Compound 26, 4R-(1,3-Dioxo-1,3-dihydro-pyrrolo[3,4-c]pyridin-2-yl)-3S-hydroxy-2,2-dimethyl-chroman-6-carbonitrile]: 6.04 µM; `CC1(C)Oc2ccc(C#N)cc2[C@@H](OP(=O)(c2ccccc2)c2ccccc2)[C@@H]1O` [Compound 27]: greater than 30 µM.
`CC1(C)Oc2ccc(C#N)cc2[C@@H](NP(C)(=O)c2ccccc2)[C@@H]1O` (stereo partly shown) [Compound 28] showed a half-maximal effective concentration (EC50) of 18.6 µM.
In turn, `CC1(C)Oc2ccc(C#N)cc2[C@@H](n2sc3ccccc3c2=O)[C@@H]1O` [Compound 30] gave a concentration for a half-maximal effect (EC50) of 14.1 µM.
`Cc1cccc2c(=O)n([C@@H]3c4cc(C#N)ccc4OC(C)(C)[C@H]3O)oc12` [Compound 32, 3S-Hydroxy-2,2-dimethyl-4R-(7-methyl-3-oxo-3H-benzo[d]isoxazol-2-yl)-chroman-6-carbonitrile] showed a half-maximal effective concentration (EC50) of 22.6 µM.
In turn, `CC1(C)Oc2ccc(C#N)cc2[C@@H](n2nc(N)c3cc(Cl)ccc32)[C@@H]1O` [Compound 33, 4R-(3-Amino-5-chloro-indazol-1-yl)-3S-hydroxy-2,2-dimethyl-chroman-6-carbonitrile] returned a concentration giving a half-maximal response (EC50) of 6.85 µM.
`CC1(C)Oc2ccc(C#N)cc2[C@@H](N2CC3(CCCCC3)CC2=O)[C@@H]1O` [Compound 34, 3S-Hydroxy-2,2-dimethyl-4R-(3-oxo-2-aza-spiro[4.5]dec-2-yl)-chroman-6-carbonitrile] came in with an EC50 of 21.4 µM.
Consider `CC1(C)Oc2ccc(C#N)cc2[C@@H](n2nc(N)c3ccc(Br)cc32)[C@@H]1O` [Compound 35, 4R-(3-Amino-6-bromo-indazol-1-yl)-3S-hydroxy-2,2-dimethyl-chroman-6-carbonitrile], for which the response was half-maximal at 4.4 µM (EC50).
Molecule `CC1(C)Oc2ccc(C#N)cc2[C@@H](n2nc(N)c3c(F)cccc32)[C@@H]1O` [Compound 36, 4R-(3-Amino-4-fluoro-indazol-1-yl)-3S-hydroxy-2,2-dimethyl-chroman-6-carbonitrile] showed a half-maximal effective concentration (EC50) of 16.2 µM.
As to `CC1(C)Oc2ccc(C#N)cc2[C@@H](n2nc(N)c3ccccc32)[C@@H]1O` [Compound 37, 4R-(3-Amino-indazol-1-yl)-3S-hydroxy-2,2-dimethyl-chroman-6-carbonitrile], the EC50 is 20 µM.
In turn, `CC1(C)Oc2ccc(C#N)cc2[C@@H](Oc2noc3ccc(Cl)cc23)[C@@H]1O` [Compound 38, (3S,4R)-4-(5-Chloro-benzo[d]isoxazol-3-yloxy)-3-hydroxy-2,2-dimethyl-chroman-6-carbonitrile] came in with an EC50 of 7.07 µM.
To `CC1(C)Oc2ccc(C#N)cc2[C@@H](Nc2noc3ccc(Cl)cc23)[C@@H]1O` [Compound 39, (3S,4R)-4-(5-Chloro-benzo[d]isoxazol-3-ylamino)-3-hydroxy-2,2-dimethyl-chroman-6-carbonitrile] belongs 0.61 µM.
For `CC1(C)Oc2ccc(C#N)cc2[C@@H](Oc2ncnc3ccccc23)[C@@H]1O` [Compound 40, (3S,4R)-3-Hydroxy-2,2-dimethyl-4-(quinazolin-4-yloxy)-chroman-6-carbonitrile], a half-maximal effect (EC50) was put at 1.94 µM.
